“And” between values parts separate entries of the source, which are not always exact repeats. Equal entries are not always repeated.
Settings: Hot wire method

CCF [fluoroethane]
Liquid
Settings	thermal conductivity
233.99 K	0.1496 W/m/K
234 K	0.1487 W/m/K
234.01 K	0.1487 W/m/K
234.32 K	0.1483 W/m/K and 0.1482 W/m/K and 0.1492 W/m/K
234.57 K	0.1496 W/m/K
234.63 K	0.1492 W/m/K
234.64 K	0.149 W/m/K
244.01 K	0.1429 W/m/K
244.04 K	0.1429 W/m/K and 0.1423 W/m/K
244.22 K	0.1424 W/m/K
244.25 K	0.143 W/m/K
244.26 K	0.1433 W/m/K
244.5 K	0.1426 W/m/K
244.51 K	0.142 W/m/K
244.54 K	0.1426 W/m/K
253.79 K	0.1362 W/m/K and 0.1361 W/m/K
253.8 K	0.1362 W/m/K
254.08 K	0.1364 W/m/K
254.09 K	0.1368 W/m/K and 0.1363 W/m/K
254.12 K	0.1357 W/m/K
254.14 K	0.135 W/m/K
254.15 K	0.1346 W/m/K
254.36 K	0.1352 W/m/K
254.37 K	0.1358 W/m/K
254.41 K	0.1355 W/m/K
254.71 K	0.1359 W/m/K
254.75 K	0.1355 W/m/K
254.79 K	0.1354 W/m/K
263.94 K	0.1286 W/m/K
263.95 K	0.128 W/m/K and 0.1283 W/m/K
264.16 K	0.1283 W/m/K
264.17 K	0.1287 W/m/K
264.19 K	0.1288 W/m/K
264.43 K	0.1285 W/m/K
264.51 K	0.1293 W/m/K and 0.129 W/m/K
274.37 K	0.1215 W/m/K
274.39 K	0.1214 W/m/K
274.4 K	0.1213 W/m/K
274.62 K	0.1218 W/m/K
274.64 K	0.1224 W/m/K
274.66 K	0.122 W/m/K
274.95 K	0.1224 W/m/K
274.97 K	0.1224 W/m/K
274.98 K	0.1226 W/m/K
284.17 K	0.1146 W/m/K
284.22 K	0.1146 W/m/K
284.23 K	0.1153 W/m/K
284.43 K	0.1154 W/m/K
284.46 K	0.1155 W/m/K
284.47 K	0.1152 W/m/K
284.78 K	0.1163 W/m/K
284.8 K	0.1164 W/m/K
284.81 K	0.1162 W/m/K
294.43 K	0.1097 W/m/K
294.59 K	0.1098 W/m/K
294.63 K	0.1109 W/m/K and 0.1095 W/m/K
294.64 K	0.1105 W/m/K
294.65 K	0.1103 W/m/K
294.7 K	0.1103 W/m/K
294.89 K	0.1094 W/m/K

Gas
Settings	thermal conductivity [W/m/K]
236.45 K, 86.1 kPa	0.00838
244.29 K, 84.5 kPa	0.00938
245.47 K, 132.2 kPa	0.00931
246.92 K, 132.2 kPa	0.00972
248.24 K, 132.2 kPa	0.00989
248.83 K, 84.5 kPa	0.00985
254.05 K, 84.5 kPa	0.01031
255.52 K, 201.2 kPa	0.01058
260.98 K, 132.4 kPa	0.01112
265.31 K, 286.1 kPa	0.01142
266.46 K, 286.1 kPa	0.01169
275.33 K, 370.8 kPa	0.01266
276 K, 139.9 kPa	0.01306
276.13 K, 370.8 kPa	0.01296
277.34 K, 370.8 kPa	0.01294
278.06 K, 139.9 kPa	0.01337
278.85 K, 139.9 kPa	0.01329
286.13 K, 481.4 kPa	0.01426
286.26 K, 271.3 kPa	0.01438
287.56 K, 578.8 kPa	0.01402
287.6 K, 481.4 kPa	0.01425
287.72 K, 271.3 kPa	0.01452
288.9 K, 481.4 kPa	0.01448
289.14 K, 271.3 kPa	0.0144
